Measurements published in publication PMC4436593, “Endoplasmic reticulum stress-independent activation of unfolded protein response kinases by a small molecule ATP-mimic” (eLife, 2015).

What was measured:
[1] = target: T1, GST-PERK kinase domain (580–1077 aa) (Mus musculus, UniProt Q9Z2B5); experiment: In vitro GST-PERK kinase assay (eIF2α phosphorylation with γ-[32P]-ATP)
T1 sequence (Q9Z2B5 580-1077): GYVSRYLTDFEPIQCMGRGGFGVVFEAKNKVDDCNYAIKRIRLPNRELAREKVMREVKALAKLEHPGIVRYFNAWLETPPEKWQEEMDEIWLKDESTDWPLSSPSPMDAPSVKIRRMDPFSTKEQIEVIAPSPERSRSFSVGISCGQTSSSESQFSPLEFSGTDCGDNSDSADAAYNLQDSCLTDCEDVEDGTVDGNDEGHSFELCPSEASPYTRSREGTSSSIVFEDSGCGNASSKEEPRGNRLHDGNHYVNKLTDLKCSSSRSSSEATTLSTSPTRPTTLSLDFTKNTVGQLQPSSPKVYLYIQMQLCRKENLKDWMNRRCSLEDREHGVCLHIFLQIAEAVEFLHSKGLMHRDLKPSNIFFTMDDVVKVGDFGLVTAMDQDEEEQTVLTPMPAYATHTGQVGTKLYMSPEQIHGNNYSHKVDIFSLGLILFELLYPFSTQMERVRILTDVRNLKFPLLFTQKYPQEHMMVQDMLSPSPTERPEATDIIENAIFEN

[2] = target: T2, IRE1α-KR43 (Homo sapiens, UniProt O75460); experiment: FRET-based RNA cleavage assay (fluorescent HP17 substrate) of IRE1α-KR43 RNase activity
T2 sequence (O75460 465-977 limits assumed): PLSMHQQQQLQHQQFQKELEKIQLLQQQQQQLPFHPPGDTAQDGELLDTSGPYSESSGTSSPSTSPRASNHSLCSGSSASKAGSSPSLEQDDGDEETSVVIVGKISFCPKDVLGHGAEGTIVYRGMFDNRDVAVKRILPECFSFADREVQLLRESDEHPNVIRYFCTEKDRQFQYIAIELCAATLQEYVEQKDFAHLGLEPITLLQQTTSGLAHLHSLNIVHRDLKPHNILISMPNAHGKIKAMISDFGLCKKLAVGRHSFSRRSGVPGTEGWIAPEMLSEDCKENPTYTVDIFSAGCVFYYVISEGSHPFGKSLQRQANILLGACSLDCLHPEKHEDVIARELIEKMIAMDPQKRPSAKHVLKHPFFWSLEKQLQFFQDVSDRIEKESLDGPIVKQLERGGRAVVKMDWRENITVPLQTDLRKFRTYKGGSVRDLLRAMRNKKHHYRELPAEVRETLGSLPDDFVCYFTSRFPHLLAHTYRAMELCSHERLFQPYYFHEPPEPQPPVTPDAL

[3] = target: T2, IRE1α-KR43; experiment: IRE1α-KR43 RNA cleavage assay with 5′ [32P]-labeled RNA substrate HP21 (kobs, single turnover); type: biochemical; set-up: IRE1α-KR43 comprises the soluble cytoplasmic portion of IRE1α, composed of the kinase and RNase domains plus 43 amino acids of the linker; 6xHis (N, cleaved yes); made in house; host or cells: SF21 insect cells; settings: for fold activation of IRE1α-KR43 RNase activity / IRE1α RNase activation (in words): compounds 1 μM, IRE1α-KR43 200 nM; for fold activation of IRE1α-KR43 RNase activity: [32P]-labeled HP21; for IRE1α RNase activation (in words): versus DMSO control or cmp6/cmp7
Description: To this end, we modified the molecule by substituting urea-linked and variably m- and p-substituted phenyl groups for the benzimidazole of APY29. Diphenyl urea linkers have previously been used successfully in the design of kinase inhibitors ([Dar et al., 2008]; [Dar and Shokat, 2011]; [Korennykh et al., 2012]). In exploring the addition of this chemotype on the APY29 scaffold, we generated a panel of 10 variants (Figure 1B). Each member of the panel was tested in an RNase activity assay using recombinant IRE1α-KR43 and a labeled short hairpin RNA substrate derived from human XBP1 mRNA. IRE1α-KR43 comprises the soluble cytoplasmic portion of IRE1α, composed of the kinase and RNase domains plus 43 amino acids of the linker that bridges the kinase to its transmembrane domain.
Human IRE1α-KR43 with a hexa-histidine (6xHis) tag in its N-terminus was expressed and purified in SF21 cells as described ([Li et al., 2010]). Cells were lysed in buffer containing 20 mM Tris-HCl, pH 7.5, 600 mM NaCl, 2 mM MgCl2, 3 mM imidazole, 10% glycerol, 1% Triton X-100, 3 mM β-mercaptoethanol, COMPlete protease inhibitors (Roche), and PhosSTOP phosphatase inhibitor cocktail (Roche) and passed through an AVESTIN emulsiflex-C3 3× times for complete lysis. The lysate was cleared using centrifugation at 100,000×g. Clear lysate was allowed to incubate on Ni-NTA agarose (Qiagen) beads for 2 hr before being washed 3× times with buffer containing 20 mM Tris-HCl, pH7.5, 600 mM NaCl, 2 mM MgCl2, 30 mM imidazole, 10% glycerol, and 3 mM β-mercaptoethanol. Protein was eluted from the column by raising the imidazole concentration to 250 mM. The eluate was then passed through a HiTrap desalting column (GE Healthcare). Lastly, the 6xHis was cleaved as described ([Li et al., 2010]) and the resulting protein was then loaded onto a HisTrap HP, 5 × 5 ml column to remove the uncleaved protein. The cleaved protein was then loaded on a Mono-S 5/50 GL column (GE Healthcare), and the eluate was then concentrated to 5 mg/ml and loaded on a Superdex 200 HR 10/300 (GE Healthare) column in buffer containing 20 mM Tris-HCl pH 7.5, 250 mM NaCl, 5% Glycerol and 5 mM tris(2-carboxyethyl)phosphine (TCEP). The pure protein solution was aliquoted and stored at −80°C.

[4] = tested on: HEK293T cells; experiment: HEK293T cell viability (CellTiter-Blue, 24 hr); type: cell-based; settings: STS dose response + 1 μM GSK PERK inhibitor
Description: HEK293T cells were grown in DMEM (Sigma) complete media containing 10% FBS, 10 units/ml penicillin (Invitrogen), and 10 μg/ml streptomycin (Invitrogen). Cells were plated at a density of 30,000 cells per well in 96-well black plates with clear flat bottoms (Corning, Sigma-Aldrich) 24 hr before the experiment. A 12-point semi-logarithmic dilution series of compounds was made starting at 30 μM not to exceed 0.1% DMSO after final dilution into the growth media. Viability assays were conducted over the course of 24 hr. Cell viability was determined using CellTiter-Blue (Promega) following the manufacturer's instructions. […] Experiments were done in triplicate, and mean values were computed for each data point.

[5] = tested on: IRE1α-GFP in T-REx293 cells; experiment: IRE1-GFP foci formation in T-REx293 cells (confocal microscopy); type: cell-based; settings: doxycycline-induced IRE1α-GFP
Excerpt: We next used a T-REx293 cell line, containing a genome-integrated doxycycline-inducible IRE1α-GFP fusion gene, to monitor IRE1α oligomerization in vivo ([Li et al., 2010]). In the presence of doxycycline, IRE1α-GFP was expressed and localized to the ER (Figure 2D). […] Furthermore, the foci dissolved by 8 hr of treatment as cells attenuated IRE1α signaling even in the presence of unmitigated ER stress (Figure 2D, upper panels) ([Li et al., 2010]). […] While Tm-induced foci became larger and fewer over time as previously observed, IPA-induced foci remained small and numerous.
T-REx293 cells were split 2 days before imaging onto glass-bottom micro-well dishes (MatTek) at 5 × 10^4 cells/dish. Doxycyclin-containing medium (10 nM doxycycline) was added for 24 hr, withdrawn before imaging and replaced with imaging media (Hank's Balanced Salt Solution [Gibco], 2% FBS, and 5 mM HEPES pH 7.0). Images were acquired on a spinning-disk confocal microscope as described ([Li et al., 2010]).

[6] = tested on: ATF6 transcriptional targets HERPUD1 (HERP1) and DERLIN3 (DERL3); experiment: ATF6 target mRNAs HERP1 and DERL3 by RT-PCR in HEK293T cells; type: cell-based; settings: IPA 1 μM and 4 μM, Tm
Excerpt: To assess the effects of IPA on the activity of the two other UPR branches, we first examined activation of ATF6. To this end, we monitored mRNA levels by RT-PCR for two ATF6-driven transcriptional target genes, HERP1 and DERL3, in HEK293T cells.
Cells were lysed and total RNA was collected (Total RNA Kit 1, EZ-RNA, EZNA [USA]). PolyA^+ mRNA was reverse transcribed with M-MLV (Invitrogen), and the resulting cDNA was used as a template for PCR amplification across the fragment of XBP1 cDNA containing the intron. Primers used to amplify human XBP1: 5′-[…]-3′ and 5′-[…]-3′. To amplify murine XBP1: 5′-[…]-3′ and 5′-[…]-3′. PCR conditions were as follows: 95°C for 5 min, 95°C for 1 min, 58°C for 30 s, 72°C for 30 s, and 72°C for 5 min, with 20 cycles of amplification. PCR products were resolved on a 2.5% agarose tris-acetate EDTA (TAE) gel. As previously reported, a hybrid amplicon species consisting of unspliced Xbp-1 annealed to spliced Xbp-1 can also be produced through this PCR reaction and was visible as a slower migrating band above the unspliced amplicon. The same cDNA was used as template for PCR of DERLIN-3 and HERPUD1, both ATF6 targets, and GAPDH, which was used as loading control. Primers used included the following: DERLIN-3, 5′-[…]-3′ and 5′-[…]-3′; HERPUD1-1, 5′-[…]-3′ and 5′-[…]-3′; GAPDH, 5′-[…]-3′ and 5′-[…]-3′. […]

[7] = target: the molecule itself; experiment: cell-based or functional assay
[8] = target: the molecule itself; experiment: SEC; GST-PERK purified on GST-Sepharose and Superdex 200 10/300 gel filtration in buffer B (50 mM Tris pH 7.5, 50 mM NaCl, 5 mM MgCl2, 3 mM DTT, 1% glycerol); the paper does not say how the dimer was determined
[9] = compound 20 μM, RNase activity as a function of IRE1α-KR43 concentration

In the case of c1cc(Nc2cc(C3CC3)[nH]n2)nc(Nc2ccc3[nH]cnc3c2)n1 [APY29, reference compound], the IC50 [1] is reported as 0.69 µM, the EC50 [2] is reported as 5.2 µM and the “fold activation of IRE1α-KR43 RNase activity” value (shortened to “fold activation”) [3] is reported as “fivefold”.

With CN[C@@H]1C[C@H]2O[C@@](C)([C@@H]1OC)n1c3ccccc3c3c4c(c5c6ccccc6n2c5c31)C(=O)NC4 [STS, staurosporine, reference compound] the “change of cell viability dose response in the presence of 1 μM GSK” value [4] was “No change in cell viability was observed”.

In the case of O=C(Nc1ccc(Nc2nccc(Nc3cc(C4CC4)[nH]n3)n2)cc1)Nc1cccc(C(F)(F)F)c1 [cmp1], the IC50 [1] is reported as 4.5 µM, the EC50 [2] is reported as 0.95 µM and the “fold lower enzyme concentration at ½ kmax, obs versus no activator” value ([3]; compound 20 μM) is reported as 3 fold. For the same molecule, the “1/2kmax, obs (IRE1α-KR43 concentration at half-maximal kobs)” value [3, 9] was 3 µM, the Hill coefficient n [3, 9] was 3.8 and the “fold activation” value [3] was 10–100 fold.

For Cc1ccc(NC(=O)Nc2ccc(Nc3nccc(Nc4cc(C5CC5)[nH]n4)n3)cc2)cc1 [cmp2], the “fold activation” value [3] was 10–100 fold.

For CCc1ccc(NC(=O)Nc2ccc(Nc3nccc(Nc4cc(C5CC5)[nH]n4)n3)cc2)cc1 [cmp3], the “fold activation” value [3] was 10–100 fold.

For COc1cccc(NC(=O)Nc2ccc(Nc3nccc(Nc4cc(C5CC5)[nH]n4)n3)cc2)c1 [cmp4], the “fold activation” value [3] was 10–100 fold.

With COc1ccc(NC(=O)Nc2ccc(Nc3nccc(Nc4cc(C5CC5)[nH]n4)n3)cc2)cc1 [cmp5] the “fold activation” value [3] was 10–100 fold.

For O=C(Nc1ccc(I)cc1)Nc1ccc(Nc2nccc(Nc3cc(C4CC4)[nH]n3)n2)cc1 [cmp7], the “fold activation” value [3] was 900 fold.

For O=C(Nc1ccc(Br)cc1)Nc1ccc(Nc2nccc(Nc3cc(C4CC4)[nH]n3)n2)cc1 [cmp8], the “IRE1α RNase activation (in words)” value [3] was “decreased activities”.

For CC(C)c1ccc(NC(=O)Nc2ccc(Nc3nccc(Nc4cc(C5CC5)[nH]n4)n3)cc2)cc1 [cmp9], the “IRE1α RNase activation (in words)” value [3] was “decreased activities”.

With CC(C)(C)c1ccc(NC(=O)Nc2ccc(Nc3nccc(Nc4cc(C5CC5)[nH]n4)n3)cc2)cc1 [cmp10] the “IRE1α RNase activation (in words)” value [3] was “decreased activities”.

In the case of tunicamycin [Tm, reference compound], the IRE1α-GFP foci formation [5] is reported as “rapidly induced the relocalization of IRE1α-GFP into discrete foci” and the “induction of ATF6 target genes HERP1 and DERL3” value [6] is reported as “induced the expression of these two genes”.

B1: PERK cytosolic domain (535–1093 Δ660–868) (domain or fragment, human, UniProt Q9NZJ5 535-1093, looked up)
chain: ATTFIVRRLFHPHPHRQRKESETQCQTENKYDSVSGEANDSSWNDIKNSGYISRYLTDFEPIQCLGRGGFGVVFEAKNKVDDCNYAIKRIRLPNRELAREKVMREVKALAKLEHPGIVRYFNAWLKNTTEKLQPSSPKVYLYIQMQLCRKENLKDWMNGRCTIEERERSVCLHIFLQIAEAVEFLHSKGLMHRDLKPSNIFFTMDDVVKVGDFGLVTAMDQDEEEQTVLTPMPAYARHTGQVGTKLYMSPEQIHGNSYSHKVDIFSLGLILFELLYPFSTQMERVRTLTDVRNLKFPPLFTQKYPCEYVMVQDMLSPSPMERPEAINIIENAVFEDLDFPGKTVLRQRSR
For B1, the “rate of eIF2α phosphorylation by the PERK cytoplasmic domain against IPA concentration, fold change normalised to DMSO control; greatest activation at 500 nM IPA” value [7] was 3.3 fold.

B2: GST-PERK kinase domain (580–1077 aa) (domain or fragment, murine, UniProt Q9Z2B5 580-1077, looked up)
chain: T1 sequence (Q9Z2B5 580-1077)
notes: PERK, murine, cytosolic kinase domain, residues 580–1077; The dimer may therefore be held by GST; also called PERK-GST fusion protein; GST-PERK fusion protein; source: E. coli BL21DE3 RIPL, purified (GST-Sepharose, Superdex 200 10/300); not shown: GST, N-terminal, kept
For B2, the “stoichiometry N” value [8] was 2.
